Several values for one entry are separate records, joined by “and”; a condition that tells them apart may be missing. Equal entries are not always repeated.
Tests used:
Fe-DA = experiment: H2O2 assay, Fe-DA (% cf. Fe 0.4 μM/DA 50 μM); format: biochemical; settings: Fe 0.4 μM/DA 50 μM
Description: (§1) This fluoresence assay evaluates the ability of a test compound to inhibit the generation of hydrogen peroxide (H2O2) by iron in the presence of a reducing substrate such as ascorbic acid. In the assay, iron in the form of FeCl3 or copper is allowed to react with ascorbic acid by incubating for 1 hr at 37° C. in the presence of the fluorescing compound DCF and horseradish peroxidase. H2O2 generated by the system is assessed by measuring the specific fluorescence profile at the excitation and emission wavelengths of 485 and 530 nm respectively, in the presence of increasing concentrations of test compound. Test compounds are ranked according to their capacity to inhibit H2O2 generated by the system where lower values reflect greater ability to inhibit H2O2 production.

[1] = system: M17 human neuroblastoma cells; experiment: Metal Uptake Assay (metal transport); format: cell-based; settings: 10 μM Cu + 10 μM compound, 5 hours
Description: Assay 3. Metal Uptake Assay
M17 human neuroblastoma cells are plated out on 6 well plates and left overnight. Enough cells are added to give approximately 70% confluent the following day of the experiment. Test compounds are added to media and mixed with equi-molar amounts of CuCl2 solution. A=10 μM Cu+10 μM MPAC; B=10 μM Cu+10 μM MPAC.
Cells are incubated in 1 ml of media/MPAC/Cu mix for 5 hours at 37° C. At the end of the incubation the media is removed with a vacuum aspirator and 1 ml of PBS added to dislodge the cells. Cells are then put into Eppendorf tubes and pelleted. The PBS is removed and the remaining cell pellets are frozen at −20 C.
The cell pellets are prepared as follows:
Received cell pellets of similar levels in 1.5 ml microfuge tubes. Added 50 μl of concentrated Nitric Acid (Aristar, BDH) to each cell pellet and allowed them to digest over night. Heated the samples for 20 min at 90° C. to complete the digestion. The volume of each sample was reduced to ˜45 ul after digestion. Added 1 ml of the 1% Nitric Acid diluent to each sample. (referred to as the “preparation solution” samples).
Measurements were made using a Varian UltraMass ICPMS instrument under operating conditions suitable for routine multi-element analysis.
The instrument was calibrated using Blank, 10, 50 and 100 ppb of a certified multi-element ICPMS standard solution (ICP-MS—CAI2-1, Accustandard) for Fe, Cu and Zn in 1% nitric acid. Used an certified internal standard solution containing 100 ppb Yttrium (Y 89) as an internal control (ICP-MS—IS-MIX1-1, Accustandard).

[2] = system: generation of hydrogen peroxide (H2O2) by iron; experiment: H2O2 Inhibition Assay; format: biochemical
Description: Assay 1. H2O2 Inhibition Assay.
as §1

Neuronal cortical cells = experiment: Cytotox (% viable); Primary Neuronal Cells Neurotoxicity Assay; format: cell-based, mouse; settings: cell type not given, repeat values given
Description: Assay 2 (a). Primary Neuronal Cells Neurotoxicity Assays
Cortical cultures were prepared as previously described (White et al., 1998). Embryonic day 14 BL6Jx129sv mouse cortices were removed, dissected free of meninges and dissociated in 0.025% (wt/vol) trypsin. Dissociated cells were plated in 48 well culture plates at a density of 2×10^6 cells/mL in MEM with 25% (vol/vol) FCS and 5% (vol/vol) HS and incubated at 37° C., 2 hrs. Media was then replaced with Neurobasal media (Invitrogen Life Technologies) and B27 supplements (Invitrogen Life Technologies). Cultures were maintained at 37° C. in 5% CO2. Prior to experimentation, the culture medium was replaced with Neurobasal media and B27 minus antioxidants (Invitrogen Life Technologies).
Neuronal cortical cells were cultured for five days as per Assay 2 in NB media and B27 supplement.
On day six the test compounds were added to the neuronal cell cultures in NB media and B27 supplement minus antioxidants.
Test compounds were dissolved in 100% DMSO to a concentration of 2.5 mM (10 mM if excess compound was weighed out per vial—then diluted to 2.5 mM). 2.5 mM stock solution was serially diluted 1 in 10 to give working solutions of 250 uM, 25 uM, 2.5 uM. Test compounds were not added directly to cells, instead they were added to a 48 well ‘Drug Plate’ as comprised below: • Preparation of “Drug Plate”:
Well 1: 576 ul NB+B27 (no antioxidant)*+24 ul 2.5 uM test compound
Well 2: 576 ul NB+B27 (no antioxidant)+24 μl 25 uM test compound
Well 3: 576 ul NB+B27 (no antioxidant)+24 ul 250 uM test compound
Well 4: 576 ul NB+B27 (no antioxidant)+24 ul 2.5 uM test compound
Well 5: 576 ul NB+B27 (no antioxidant)+24 ul 25 uM test compound
Well 6: 576 ul NB+B27 (no antioxidant)+24 ul 250 uM test compound
Well 7: 576 ul NB+B27 (no antioxidant)+24 ul test compound diluent**
Well 8: 600 ul NB+B27 (no antioxidant)
The Drug Plate was incubated at 37° C. for 15 mins. 200 ul of each well was added in triplicate to the corresponding cell plate. The cell plate was incubated at 37° C., for 4 days, (2 compounds are tested on each plate of cells).
*NB media and B27 (no antioxidants),
**PBT diluent 10% DMSO in NB+1327 (no antioxidants)
On completion of the assay, 1/10 volume MTS was added per well of plate (ie 25 ul/250 ul). The plates were incubated at 37° C. for 2 hrs, and then absorbance was read at 560 nm.

## C#CCN(C)Cc1nc2c(O)c(Cl)cc(Cl)c2c(=O)n1CC [Compound F4392]
Fe-DA
  Fe-DA % cf. Fe 0.4 μM/DA 50 μM: 72%
[1]
  Metal transport: Metal transport 161%
[2]
  IC50: 570 nM

## Cn1c(CN2CCCCC2)nc2c(O)c(Cl)cc(Cl)c2c1=O [Compound F4475]
Fe-DA
  Fe-DA % cf. Fe 0.4 μM/DA 50 μM: 80%
[1]
  Metal transport: Metal transport 8%
[2]
  IC50: 500 nM

## CCCNCc1nc2c(O)c(Cl)cc(Cl)c2c(=O)n1C [Compound F4477]
Fe-DA
  Fe-DA % cf. Fe 0.4 μM/DA 50 μM: 65%
[1]
  Metal transport: Metal transport 16%
[2]
  IC50: 220 nM

## CN(Cc1ccc(F)cc1)Cc1nc2c(O)c(Cl)cc(Cl)c2c(=O)n1CC1CC1 [Compound F4480]
Fe-DA
  Fe-DA % cf. Fe 0.4 μM/DA 50 μM: 46%
[1]
  Metal transport: Metal transport 138%
Neuronal cortical cells
  Cytotox (% viable at 1 uM): 91.6% and 106.7%
  Cytotox (% viable at 10 uM): 30.3% and 33.3%
[2]
  IC50: 470 nM

## CCn1c(CN(C)Cc2ccc(F)cc2)nc2c(O)c(Cl)cc(Cl)c2c1=O [Compound F4487]
Fe-DA
  Fe-DA % cf. Fe 0.4 μM/DA 50 μM: 53%
[1]
  Metal transport: Metal transport 133%
[2]
  IC50: 760 nM

## CCCn1c(CN2CCCCC2)nc2c(O)c(Cl)cc(Cl)c2c1=O [Compound F4492]
Fe-DA
  Fe-DA % cf. Fe 0.4 μM/DA 50 μM: 55%
[1]
  Metal transport: Metal transport 18%
[2]
  IC50: 1140 nM

## O=c1c2c(Cl)cc(Cl)c(O)c2nc(CN2CCCC2)n1CC1CC1 [Compound F4499]
Fe-DA
  Fe-DA % cf. Fe 0.4 μM/DA 50 μM: 55%
[1]
  Metal transport: Metal transport 15%
Neuronal cortical cells
  Cytotox (% viable at 1 uM): 99.1% and 76.5%
  Cytotox (% viable at 10 uM): 68.6% and 78.1%
[2]
  IC50: 1890 nM

## CCCn1c(CN(C)C)nc2c(O)c(Cl)cc(Cl)c2c1=O [Compound F4530]
Fe-DA
  Fe-DA % cf. Fe 0.4 μM/DA 50 μM: 57%
[1]
  Metal transport: Metal transport 24%
Neuronal cortical cells
  Cytotox (% viable at 1 uM): 105.0% and 96.2%
  Cytotox (% viable at 10 uM): 57.6% and 41.4%
[2]
  IC50: 290 nM

## CCCN(CCC)Cc1nc2c(O)c(Cl)cc(Cl)c2c(=O)n1CC1CC1 [Compound F4535]
Fe-DA
  Fe-DA % cf. Fe 0.4 μM/DA 50 μM: 62%
[1]
  Metal transport: Metal transport 25%
Neuronal cortical cells
  Cytotox (% viable at 1 uM): 87.0% and 103.0%
  Cytotox (% viable at 10 uM): 63.6% and 59.8%
[2]
  IC50: 880 nM

## CN(Cc1nc2c(O)c(Cl)cc(Cl)c2c(=O)n1CC1CC1)C1CCCCC1 [Compound F4536]
Fe-DA
  Fe-DA % cf. Fe 0.4 μM/DA 50 μM: 81%
[1]
  Metal transport: Metal transport 24%
Neuronal cortical cells
  Cytotox (% viable at 1 uM): 92.7% and 105.1% and 109.8%
[2]
  IC50: 1000 nM

## CCCn1c(CNCC)nc2c(O)c(Cl)cc(Cl)c2c1=O [Compound F4540]
Fe-DA
  Fe-DA % cf. Fe 0.4 μM/DA 50 μM: 122%
[1]
  Metal transport: Metal transport 14%
Neuronal cortical cells
  Cytotox (% viable at 1 uM): 100.4% and 111.5%
  Cytotox (% viable at 10 uM): 83.4% and 96.5%
[2]
  IC50: > 10000 nM

## CCCn1c(CN(CC)CC)nc2c(O)c(Cl)cc(Cl)c2c1=O [Compound F4541]
Fe-DA
  Fe-DA % cf. Fe 0.4 μM/DA 50 μM: 107%
[1]
  Metal transport: Metal transport 13%
Neuronal cortical cells
  Cytotox (% viable at 1 uM): 97.3% and 96.4%
  Cytotox (% viable at 10 uM): 76.6% and 90.8%
[2]
  IC50: 740 nM

## CCCNCc1nc2c(O)c(Cl)cc(Cl)c2c(=O)n1CCC [Compound F4542]
Fe-DA
  Fe-DA % cf. Fe 0.4 μM/DA 50 μM: 47%
[1]
  Metal transport: Metal transport 30%
Neuronal cortical cells
  Cytotox (% viable at 1 uM): 105.8% and 102.9% and 94.3%
[2]
  IC50: 360 nM

## CCCN(CCC)Cc1nc2c(O)c(Cl)cc(Cl)c2c(=O)n1CCC [Compound F4543]
Fe-DA
  Fe-DA % cf. Fe 0.4 μM/DA 50 μM: 71%
[1]
  Metal transport: Metal transport 62%
Neuronal cortical cells
  Cytotox (% viable at 1 uM): 92.0% and 107.4%
  Cytotox (% viable at 10 uM): 52.6% and 61.5%
[2]
  IC50: 500 nM

## CNCc1nc2c(O)c(Cl)cc(Cl)c2c(=O)n1CC(C)C [Compound F4544]
Fe-DA
  Fe-DA % cf. Fe 0.4 μM/DA 50 μM: 164%
[1]
  Metal transport: Metal transport 19%
Neuronal cortical cells
  Cytotox (% viable at 1 uM): 84.0% and 86.9%
  Cytotox (% viable at 10 uM): 29.7% and 26.7%
[2]
  IC50: 830 nM

## CCNCc1nc2c(O)c(Cl)cc(Cl)c2c(=O)n1CC(C)C [Compound F4545]
Fe-DA
  Fe-DA % cf. Fe 0.4 μM/DA 50 μM: 148%
[1]
  Metal transport: Metal transport 40%
Neuronal cortical cells
  Cytotox (% viable at 1 uM): 86.4% and 85.0%
  Cytotox (% viable at 10 uM): 36.2% and 28.0%
[2]
  IC50: 430 nM

## CCN(CC)Cc1nc2c(O)c(Cl)cc(Cl)c2c(=O)n1CC(C)C [Compound F4546]
Fe-DA
  Fe-DA % cf. Fe 0.4 μM/DA 50 μM: 66%
[1]
  Metal transport: Metal transport 21%
Neuronal cortical cells
  Cytotox (% viable at 1 uM): 95.6% and 92.2% and 103.3%
  Cytotox (% viable at 10 uM): 63.7% and 86.5% and 100.3%
[2]
  IC50: 460 nM

## CCCNCc1nc2c(O)c(Cl)cc(Cl)c2c(=O)n1CC(C)C [Compound F4547]
Fe-DA
  Fe-DA % cf. Fe 0.4 μM/DA 50 μM: 34%
[1]
  Metal transport: Metal transport 54%
Neuronal cortical cells
  Cytotox (% viable at 1 uM): 75.0% and 83.9%
  Cytotox (% viable at 10 uM): 25.2% and 26.0%
[2]
  IC50: 500 nM

## CCCN(CCC)Cc1nc2c(O)c(Cl)cc(Cl)c2c(=O)n1CC(C)C [Compound F4548]
Fe-DA
  Fe-DA % cf. Fe 0.4 μM/DA 50 μM: 40%
[1]
  Metal transport: Metal transport 38%
Neuronal cortical cells
  Cytotox (% viable at 1 uM): 96.5% and 96.0%
  Cytotox (% viable at 10 uM): 55.9% and 46.0%
[2]
  IC50: 380 nM

## CCCNCc1nc2c(O)c(Cl)cc(Cl)c2c(=O)n1CC [Compound F4549]
Fe-DA
  Fe-DA % cf. Fe 0.4 μM/DA 50 μM: 40%
[1]
  Metal transport: Metal transport 22%
Neuronal cortical cells
  Cytotox (% viable at 1 uM): 98.5% and 99.7%
  Cytotox (% viable at 10 uM): 44.6% and 52.1%
[2]
  IC50: 300 nM

## CCN(C)Cc1nc2c(O)c(Cl)cc(Cl)c2c(=O)n1CC1CC1 [Compound F4581]
[2]
  IC50: 500 nM

## CCN(C)Cc1nc2c(O)c(Cl)cc(Cl)c2c(=O)n1C [Compound F4582]
[2]
  IC50: 550 nM

— US9145375B2, “Quinazolinone compounds” (PRANA BIOTECHNOLOGY LIMITED, priority 2008, dated 2015)
